ChEMBL document CHEMBL3885881, “DrugMatrix”

Species on record: Rattus norvegicus
Assay: DrugMatrix - Regimen: Daily Repeat
Format: toxicity, organism-based, Sprague-Dawley
Design: regimen Daily Repeat, gender Male, age 6-8 weeks
Conditions: in vivo, po, route oral GAVAGE, […]; for ABSOLUTE BASOPHIL / ABSOLUTE EOSINOPHIL / ABSOLUTE LYMPHOCYTE / ABSOLUTE MONOCYTE / ABSOLUTE SEGMENTED NEUTROPHIL / BASOPHIL / EOSINOPHIL / ERYTHROCYTE COUNT / HEMATOCRIT / HEMOGLOBIN / LEUKOCYTE COUNT / LYMPHOCYTE / MEAN CORPUSCULAR HEMOGLOBIN / MEAN CORPUSCULAR HEMOGLOBIN CONCENTRATION / MEAN CORPUSCULAR VOLUME / MONOCYTE / NEUTROPHIL / NUCLEATED RED BLOOD CELLS / PLATELET COUNT: tissue Blood; for ALANINE AMINOTRANSFERASE / ALBUMIN / ALKALINE PHOSPHATASE / ASPARTATE AMINOTRANSFERASE / BLOOD UREA NITROGEN / CARBON DIOXIDE / CHLORIDE / CHOLESTEROL / CREATINE PHOSPHOKINASE / CREATININE / GLUCOSE / LACTATE DEHYDROGENASE / LIPASE / PHOSPHORUS / POTASSIUM / SODIUM / TOTAL BILIRUBIN / TOTAL PROTEIN / URIC ACID: tissue Plasma
[1] = 0 mg/kg, 72 h, dose level Control, time 3 day
[2] = 0 mg/kg, 120 h, dose level Control, time 5 day
[3] = 1 mg/kg, 72 h, dose level Low, time 3 day

SMILES: O=C(O)COC(=O)Cc1ccccc1Nc1c(Cl)cccc1Cl [ACECLOFENAC]
- ABSOLUTE BASOPHIL [1]: 0 CELLS/uL
- ABSOLUTE EOSINOPHIL [1]: 0 CELLS/uL
- ABSOLUTE LYMPHOCYTE [1]: 9244.83 CELLS/uL
- ABSOLUTE MONOCYTE [1]: 102 CELLS/uL
- ABSOLUTE SEGMENTED NEUTROPHIL [1]: 869.83 CELLS/uL
- BASOPHIL [1]: 0%
- EOSINOPHIL [1]: 0%
- ERYTHROCYTE COUNT [1]: 5.43 x10E6/uL
- HEMATOCRIT [1]: 34.03%
- HEMOGLOBIN [1]: 13.27 G/DL
- LEUKOCYTE COUNT [1]: 10.22 x10E3/uL
- LYMPHOCYTE [1]: 90.33%
- MEAN CORPUSCULAR HEMOGLOBIN [1]: 24.48 pg
- MEAN CORPUSCULAR HEMOGLOBIN CONCENTRATION [1]: 39.03 G/DL
- MEAN CORPUSCULAR VOLUME [1]: 62.75 fL
- MONOCYTE [1]: 1%
- NEUTROPHIL [1]: 8.67%
- NUCLEATED RED BLOOD CELLS [1]: 0.17 /100WBC
- PLATELET COUNT [1]: 989 x10E3/uL
- ALANINE AMINOTRANSFERASE [1]: 77 u/L
- ALBUMIN [1]: 3.97 G/DL
- ALKALINE PHOSPHATASE [1]: 464.83 u/L
- ASPARTATE AMINOTRANSFERASE [1]: 89.83 u/L
- BLOOD UREA NITROGEN [1]: 12.17 mg/dL
- CARBON DIOXIDE [1]: 34.17 mmol/L
- CHLORIDE [1]: 98.33 MEQ/L
- CHOLESTEROL [1]: 75.17 mg/dL
- CREATINE PHOSPHOKINASE [1]: 367.67 u/L
- CREATININE [1]: 0.16 mg/dL
- GLUCOSE [1]: 142.67 mg/dL
- LACTATE DEHYDROGENASE [1]: 139.33 u/L
- LIPASE [1]: 9.5 u/L
- PHOSPHORUS [1]: 10.85 mg/dL
- POTASSIUM [1]: 6.38 MEQ/L
- SODIUM [1]: 143.2 MEQ/L
- TOTAL BILIRUBIN [1]: 0.2 mg/dL
- TOTAL PROTEIN [1]: 5.77 G/DL
- URIC ACID [1]: 0.7 mg/dL
- ABSOLUTE BASOPHIL [2]: 0 CELLS/uL
- ABSOLUTE EOSINOPHIL [2]: 0 CELLS/uL
- ABSOLUTE LYMPHOCYTE [2]: 8295.33 CELLS/uL
- ABSOLUTE MONOCYTE [2]: 84.67 CELLS/uL
- ABSOLUTE SEGMENTED NEUTROPHIL [2]: 970 CELLS/uL
- BASOPHIL [2]: 0%
- EOSINOPHIL [2]: 0%
- ERYTHROCYTE COUNT [2]: 5.74 x10E6/uL
- HEMATOCRIT [2]: 36.22%
- HEMOGLOBIN [2]: 13.85 G/DL
- LEUKOCYTE COUNT [2]: 9.35 x10E3/uL
- LYMPHOCYTE [2]: 88.67%
- MEAN CORPUSCULAR HEMOGLOBIN [2]: 24.13 pg
- MEAN CORPUSCULAR HEMOGLOBIN CONCENTRATION [2]: 38.25 G/DL
- MEAN CORPUSCULAR VOLUME [2]: 63.08 fL
- MONOCYTE [2]: 1%
- NEUTROPHIL [2]: 10.33%
- NUCLEATED RED BLOOD CELLS [2]: 0.17 /100WBC
- PLATELET COUNT [2]: 883.83 x10E3/uL
- ALANINE AMINOTRANSFERASE [2]: 64.5 u/L
- ALBUMIN [2]: 4.12 G/DL
- ALKALINE PHOSPHATASE [2]: 425.67 u/L
- ASPARTATE AMINOTRANSFERASE [2]: 88.5 u/L
- BLOOD UREA NITROGEN [2]: 14.17 mg/dL
- CARBON DIOXIDE [2]: 30.5 mmol/L
- CHLORIDE [2]: 100.33 MEQ/L
- CHOLESTEROL [2]: 55.33 mg/dL
- CREATINE PHOSPHOKINASE [2]: 287.17 u/L
- CREATININE [2]: 0.2 mg/dL
- GLUCOSE [2]: 162.83 mg/dL
- LACTATE DEHYDROGENASE [2]: 111.33 u/L
- LIPASE [2]: 10.5 u/L
- PHOSPHORUS [2]: 10.32 mg/dL
- POTASSIUM [2]: 5.13 MEQ/L
- SODIUM [2]: 143.93 MEQ/L
- TOTAL BILIRUBIN [2]: 0.17 mg/dL
- TOTAL PROTEIN [2]: 5.9 G/DL
- URIC ACID [2]: 0.77 mg/dL
- ABSOLUTE BASOPHIL [3]: 0 CELLS/uL
- ABSOLUTE EOSINOPHIL [3]: 34 CELLS/uL
- ABSOLUTE LYMPHOCYTE [3]: 11265.67 CELLS/uL
- ABSOLUTE MONOCYTE [3]: 0 CELLS/uL
- ABSOLUTE SEGMENTED NEUTROPHIL [3]: 933.67 CELLS/uL
- BASOPHIL [3]: 0%
- EOSINOPHIL [3]: 0.33%
- ERYTHROCYTE COUNT [3]: 5.17 x10E6/uL
- HEMATOCRIT [3]: 32.3%
- HEMOGLOBIN [3]: 12.7 G/DL
- LEUKOCYTE COUNT [3]: 12.23 x10E3/uL
- LYMPHOCYTE [3]: 92.33%
- MEAN CORPUSCULAR HEMOGLOBIN [3]: 24.6 pg
- MEAN CORPUSCULAR HEMOGLOBIN CONCENTRATION [3]: 39.37 G/DL
- MEAN CORPUSCULAR VOLUME [3]: 62.53 fL
- MONOCYTE [3]: 0%
- NEUTROPHIL [3]: 7.33%
- NUCLEATED RED BLOOD CELLS [3]: 0 /100WBC
- PLATELET COUNT [3]: 1096 x10E3/uL
- ALANINE AMINOTRANSFERASE [3]: 63.33 u/L
- ALBUMIN [3]: 4.13 G/DL
- ALKALINE PHOSPHATASE [3]: 435.67 u/L
- ASPARTATE AMINOTRANSFERASE [3]: 81.67 u/L
- BLOOD UREA NITROGEN [3]: 12.33 mg/dL
- CARBON DIOXIDE [3]: 33 mmol/L
- CHLORIDE [3]: 98 MEQ/L
- CHOLESTEROL [3]: 77.33 mg/dL
- CREATINE PHOSPHOKINASE [3]: 224.33 u/L
- CREATININE [3]: 0.13 mg/dL
- GLUCOSE [3]: 132.33 mg/dL
- LACTATE DEHYDROGENASE [3]: 137.33 u/L
- LIPASE [3]: 9.67 u/L
- PHOSPHORUS [3]: 11.77 mg/dL
- POTASSIUM [3]: 6.44 MEQ/L
- SODIUM [3]: 143.43 MEQ/L
- TOTAL BILIRUBIN [3]: 0.2 mg/dL
- TOTAL PROTEIN [3]: 5.9 G/DL
- URIC ACID [3]: 0.77 mg/dL
